Experimental data from PubChem BioAssay AID2060901 (Molecular Pharmacology Branch, DTP, NCI, 2025).
Several values for one entry are separate records, joined by “and”; a condition that tells them apart may be missing. Equal values may be shown once. One block for each compound: values may come before it.

Test system: 422866-222-R5-J1-PDC complex spheroids viability
Experiment: Anticancer human tumor 422866-222-R5-J1-PDC patient-derived pancreatic adenocarcinoma cell line growth inhibition [RAS]
Details: for viability, T/C: stronger effect = lower value
Description: RAS pathway inhibitors in Combinations in Complex Spheroids
A high-throughput screen of multi-cell type tumor spheroids was designed to identify active combinations of RAS pathway inhibitors and targeted small molecules. Complex spheroids include a stromal component modeled by human endothelial cells (HUVEC) and fibroblasts modeled by human mesenchymal stem cells (MSCs). The concentration ranges selected for each drug and investigational agent were based upon clinically achievable concentrations if the clinical Cmax of the agent was known.
Compounds. The drugs and investigational agents: abemaciclib (NSC768073), cobimetinib (NSC768068), divarasib (GDC6063, NSC841802), docetaxel (NSC628503), GDC-1971 (RLY-1971, NSC841576), gemcitabine (NSC613327), inavolisib (NSC800729), ipatasertib (NSC767898), KB-0742 (NSC834161), MRTX-1133 (NSC836407), osimertinib (NSC779217), RMC-4630 (NSC839698), RMC-6236 (NSC851965), RMC-6291 (NSC852671), Ro-3306 (NSC812927), sapanisertib (NSC764658), SN-38 (NSC673596), staurosporine (NSC755774), SY5609 (NSC837396), and tovorafenib (DAY101, NSC766906), were obtained from the National Cancer Institute (NCI) Developmental Therapeutics Program Chemical Repository. The FDA-approved anticancer drug set is available from the NCI Developmental Therapeutics Program. […] The stock solutions were prepared in dimethyl sulfoxide (DMSO, Sigma-Aldrich, St. Louis, MO, cat. D2650) at 800-fold the tested concentration and stored at -70 degrees C prior to their use. All drugs and investigational agents were tested over a range starting from a high concentration at or near the clinical Cmax and decreasing in half-log increments. If the clinical Cmax for an agent had not been determined, the highest concentration tested was 10 microM.
Cell Culture. All cells were maintained in an incubator at 37 degrees C and 5% CO2 with 95% humidity. The PDC lines were cultured according to standard operating procedures established by the NCI PDMR. All PDCs were thawed and cultured in Matrigel-coated flasks prepared with a working solution of 1X Ham's F-12 nutrient mix, without supplementation (Invitrogen, Waltham, MA, cat. 11765054), 100 U/mL penicillin-streptomycin (Invitrogen, cat. 15140122), and 2.5% Matrigel (Corning Inc., Corning, NY, cat. 354248) for the first three passages. The 362531-283-R-J2-PDC and 782815-120-R-J1-PDC lines were cultured in 6C/Colon 1B media, which includes advanced DMEM/F-12 (Thermo Fisher Scientific, cat. 12634028), 10 mM HEPES (Thermo Fisher Scientific, cat. 15630080), 1X GlutaMAX supplement (Thermo Fisher Scientific, cat. 35050061), 0.1 mg/mL primocin (InvivoGen, San Diego, CA, cat. ant-pm-2), 10% defined fetal bovine serum, heat inactivated (HyClone Laboratories Inc., Logan, UT, cat. SH30070.03HI), 50% L-WRN conditioned media (ATCC, cat. CRL-3276), 1.25 mM N-Acetyl-L-cysteine (Sigma-Aldrich, cat. A9165), 10 mM nicotinamide (Sigma-Aldrich, cat. N0636), 1X B-27 supplement (Thermo Fisher Scientific, cat. 17504044), 1X N-2 supplement (Thermo Fisher Scientific, cat. 17502048), 50 ng/mL human EGF (Thermo Fisher Scientific, cat. PHG0311), and 10 microM Y-27632 dihydrochloride (Tocris Bioscience, cat. 1254). The K12877-001-R-J1-PDC line was cultured in 6I media, which includes all 6C/Colon 1B media plus 10 ng/mL human FGF-10 (PeproTech, cat. 100-26), 1 ng/mL human FGF-2 (PeproTech, cat. 100-18B), 1 µM prostaglandin E2 (Tocris Bioscience, cat. 2296), […] hydrocortisone (Sigma-Aldrich, cat. H4001), and […] bovine insulin (Sigma-Aldrich, cat. I6634). The K86415-001-R-J1-PDC line was cultured in 6D media, which includes all 6C/Colon 1B media components minus the L-WRN conditioned media. The 485176-168-R4-J1-PDC was cultured in PANC media, which includes all 6C/Colon 1B media plus 100 ng/mL human FGF-10 (PeproTech, cat. 100-26), 500 nM SB-431542 (Selleckchem, cat. S1067), and 10 nM gastrin (Tocris Bioscience, cat. 3006). […]
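Further: spheroids exposed to compounds for 7 days.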
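Wherever viability, T/C is given: 100% = DMSO vehicle control viability.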

- IC50 (curve of first compound, second compound 0.000949 µM): < 3.16 nM
- IC50 (curve of first compound, second compound 0.003 µM): < 3.16 nM
- IC50 (curve of first compound, second compound 0.00949 µM): < 3.16 nM
- IC50 (curve of first compound, second compound 0.03 µM): < 3.16 nM
- IC50 (curve of first compound, second compound 0.0949 µM): < 3.16 nM
- IC50 (curve of first compound, second compound 0.3 µM): < 3.16 nM
Structure (SMILES): C=CC(=O)Nc1cc(Nc2nccc(-c3cn(C)c4ccccc34)n2)c(OC)cc1N(C)CCN(C)C + CCn1c(-c2cccnc2C(C)OC)c2c3cc(ccc31)N1CCOC(CC(NC(=O)C(C(C)C)N(C)C(=O)C3(F)CCN(C(=O)C#CC(C)(C)N(C)C)CC3)C(=O)N3CCCC(N3)C(=O)OCC(C)(C)C2)C1
- viability, T/C (second compound 0.000949 µM, first compound 0.00316 µM): 26.2%
- viability, T/C (second compound 0.000949 µM, first compound 0.01 µM): 27.5%
- viability, T/C (second compound 0.000949 µM, first compound 0.0316 µM): 26.2%
- viability, T/C (second compound 0.000949 µM, first compound 0.1 µM): 23%
- viability, T/C (second compound 0.000949 µM, first compound 0.316 µM): 19.7%
- viability, T/C (second compound 0.000949 µM, first compound 1 µM): 22.6%
- viability, T/C (second compound 0.003 µM, first compound 0.00316 µM): 25%
- viability, T/C (second compound 0.003 µM, first compound 0.01 µM): 19.2%
- viability, T/C (second compound 0.003 µM, first compound 0.0316 µM): 23.7%
- viability, T/C (second compound 0.003 µM, first compound 0.1 µM): 16.8%
- viability, T/C (second compound 0.003 µM, first compound 0.316 µM): 14.6%
- viability, T/C (second compound 0.003 µM, first compound 1 µM): 15.2%
- viability, T/C (second compound 0.00949 µM, first compound 0.00316 µM): 21.9%
- viability, T/C (second compound 0.00949 µM, first compound 0.01 µM): 21.4%
- viability, T/C (second compound 0.00949 µM, first compound 0.0316 µM): 17.2%
- viability, T/C (second compound 0.00949 µM, first compound 0.1 µM): 16.4%
- viability, T/C (second compound 0.00949 µM, first compound 0.316 µM): 13.8%
- viability, T/C (second compound 0.00949 µM, first compound 1 µM): 16.4%
- viability, T/C (second compound 0.03 µM, first compound 0.00316 µM): 29.2%
- viability, T/C (second compound 0.03 µM, first compound 0.01 µM): 19.8%
- viability, T/C (second compound 0.03 µM, first compound 0.0316 µM): 14.6%
- viability, T/C (second compound 0.03 µM, first compound 0.1 µM): 15.8%
- viability, T/C (second compound 0.03 µM, first compound 0.316 µM): 15.9%
- viability, T/C (second compound 0.03 µM, first compound 1 µM): 15.4%
- viability, T/C (second compound 0.0949 µM, first compound 0.00316 µM): 18.7%
- viability, T/C (second compound 0.0949 µM, first compound 0.01 µM): 16.2%
- viability, T/C (second compound 0.0949 µM, first compound 0.0316 µM): 15.5%
- viability, T/C (second compound 0.0949 µM, first compound 0.1 µM): 11.9%
- viability, T/C (second compound 0.0949 µM, first compound 0.316 µM): 13.5%
- viability, T/C (second compound 0.0949 µM, first compound 1 µM): 13.1%
- viability, T/C (second compound 0.3 µM, first compound 0.00316 µM): 15.2%
- viability, T/C (second compound 0.3 µM, first compound 0.01 µM): 15.7%
- viability, T/C (second compound 0.3 µM, first compound 0.0316 µM): 17.4%
- viability, T/C (second compound 0.3 µM, first compound 0.1 µM): 13.8%
- viability, T/C (second compound 0.3 µM, first compound 0.316 µM): 13.7%
- viability, T/C (second compound 0.3 µM, first compound 1 µM): 13.2%

- IC50 (curve of compound): > 10000 nM
Structure (SMILES): CC(C)NCC(C(=O)N1CCN(c2ncnc3c2C(C)CC3O)CC1)c1ccc(Cl)cc1 (stereo not drawn)
- viability, T/C (compound 0.0316 µM): 92.2% [middle of 4 runs]
- viability, T/C (compound 0.1 µM): 93.6% [middle of 4 runs]
- viability, T/C (compound 10 µM): 133% (2×) and 147% and 160%

- IC50 (curve of first compound, second compound 0.00316 µM): < 3.16 nM
- IC50 (curve of first compound, second compound 0.01 µM): < 3.16 nM
- IC50 (curve of first compound, second compound 0.0316 µM): < 3.16 nM
- IC50 (curve of first compound, second compound 0.1 µM): < 3.16 nM
- IC50 (curve of first compound, second compound 0.316 µM): < 3.16 nM
- IC50 (curve of first compound, second compound 1 µM): < 3.16 nM
Structure (SMILES): CCN1CCN(Cc2ccc(Nc3ncc(F)c(-c4cc(F)c5nc(C)n(C(C)C)c5c4)n3)nc2)CC1 + C=CC(=O)N1CCN(c2nc(OCC3CCCN3C)nc3c(F)c(-c4nc(N)cc(C)c4C(F)(F)F)c(Cl)cc23)C(C)C1
- viability, T/C (second compound 0.00316 µM, first compound 0.00316 µM): 25.2%
- viability, T/C (second compound 0.00316 µM, first compound 0.01 µM): 32.4%
- viability, T/C (second compound 0.00316 µM, first compound 0.0316 µM): 26.4%
- viability, T/C (second compound 0.00316 µM, first compound 0.1 µM): 21%
- viability, T/C (second compound 0.00316 µM, first compound 0.316 µM): 31.8%
- viability, T/C (second compound 0.00316 µM, first compound 1 µM): 36.3%
- viability, T/C (second compound 0.01 µM, first compound 0.00316 µM): 25.3%
- viability, T/C (second compound 0.01 µM, first compound 0.01 µM): 24.6%
- viability, T/C (second compound 0.01 µM, first compound 0.0316 µM): 24.8%
- viability, T/C (second compound 0.01 µM, first compound 0.1 µM): 23.3%
- viability, T/C (second compound 0.01 µM, first compound 0.316 µM): 25.8%
- viability, T/C (second compound 0.01 µM, first compound 1 µM): 30.3%
- viability, T/C (second compound 0.0316 µM, first compound 0.00316 µM): 22.7%
- viability, T/C (second compound 0.0316 µM, first compound 0.01 µM): 22.1%
- viability, T/C (second compound 0.0316 µM, first compound 0.0316 µM): 22.5%
- viability, T/C (second compound 0.0316 µM, first compound 0.1 µM): 18.5%
- viability, T/C (second compound 0.0316 µM, first compound 0.316 µM): 27.8%
- viability, T/C (second compound 0.0316 µM, first compound 1 µM): 30.5%
- viability, T/C (second compound 0.1 µM, first compound 0.00316 µM): 24.4%
- viability, T/C (second compound 0.1 µM, first compound 0.01 µM): 22.2%
- viability, T/C (second compound 0.1 µM, first compound 0.0316 µM): 21%
- viability, T/C (second compound 0.1 µM, first compound 0.1 µM): 20.7%
- viability, T/C (second compound 0.1 µM, first compound 0.316 µM): 24.5%
- viability, T/C (second compound 0.1 µM, first compound 1 µM): 31%
- viability, T/C (second compound 0.316 µM, first compound 0.00316 µM): 18.9%
- viability, T/C (second compound 0.316 µM, first compound 0.01 µM): 20.2%
- viability, T/C (second compound 0.316 µM, first compound 0.0316 µM): 20.3%
- viability, T/C (second compound 0.316 µM, first compound 0.1 µM): 21.7%
- viability, T/C (second compound 0.316 µM, first compound 0.316 µM): 27.3%
- viability, T/C (second compound 0.316 µM, first compound 1 µM): 30.4%
- viability, T/C (second compound 1 µM, first compound 0.00316 µM): 22.7%
- viability, T/C (second compound 1 µM, first compound 0.01 µM): 20.9%
- viability, T/C (second compound 1 µM, first compound 0.0316 µM): 23.2%
- viability, T/C (second compound 1 µM, first compound 0.1 µM): 21.2%
- viability, T/C (second compound 1 µM, first compound 0.316 µM): 24.9%
- viability, T/C (second compound 1 µM, first compound 1 µM): 37.9%
